“And” between values parts separate entries of the source, which are not always exact repeats. Equal entries are not always repeated. Toxic doses and inconclusive results are not listed.
Tested on: BDF1 mice, P388 leukemia ip, median survival T/C
Assay: NCI In Vivo Anticancer Drug Screen. Data for tumor model P388 Leukemia (intraperitoneal) in B6D2F1 (BDF1) mice
Settings: endpoint: median survival time, higher = longer survival
Procedure, shortened: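 T/C = treated-group survival ÷ vehicle-control survival; tumour transplanted into mice before dosing.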

[1] = dose: 50.0 mg/kg/injection, schedule: Q01DX009 (ip), vehicle: saline with Tween-80
[2] = dose: 100.0 mg/kg/injection, schedule: Q01DX009 (ip), vehicle: saline with Tween-80
[3] = dose: 100.0 mg/kg/injection, schedule: Q01DX009 (ip), vehicle: Klucel (hydroxypropylcellulose) (HPC)
[4] = dose: 200.0 mg/kg/injection, schedule: Q01DX009 (ip), vehicle: Klucel (hydroxypropylcellulose) (HPC)
[5] = dose: 100.0 mg/kg/injection, schedule: Q04DX003 (ip), vehicle: Klucel (hydroxypropylcellulose) (HPC)
[6] = dose: 400.0 mg/kg/injection, schedule: Q04DX003 (ip), vehicle: Klucel (hydroxypropylcellulose) (HPC)
[7] = dose: 100.0 mg/kg/injection, schedule: Q01DX009 (ip), vehicle: water
[8] = dose: 3.12 mg/kg/injection, schedule: Q01DX009 (ip), vehicle: saline
[9] = dose: 12.5 mg/kg/injection, schedule: Q01DX009 (ip), vehicle: saline
[10] = dose: 25.0 mg/kg/injection, schedule: Q01DX009 (ip), vehicle: saline
[11] = dose: 200.0 mg/kg/injection, schedule: Q04DX003 (ip), vehicle: Klucel (hydroxypropylcellulose) (HPC)
[12] = dose: 50.0 mg/kg/injection, schedule: Q04DX003 (ip), vehicle: saline
[13] = dose: 100.0 mg/kg/injection, schedule: Q04DX003 (ip), vehicle: saline
[14] = dose: 200.0 mg/kg/injection, schedule: Q04DX003 (ip), vehicle: saline
[15] = dose: 50.0 mg/kg/injection, schedule: Q01DX009 (ip), vehicle: saline
[16] = dose: 100.0 mg/kg/injection, schedule: Q01DX009 (ip), vehicle: saline
[17] = dose: 50.0 mg/kg/injection, schedule: Q04DX003 (ip), vehicle: saline with Tween-80
[18] = dose: 100.0 mg/kg/injection, schedule: Q04DX003 (ip), vehicle: saline with Tween-80
[19] = dose: 200.0 mg/kg/injection, schedule: Q04DX003 (ip), vehicle: saline with Tween-80
[20] = dose: 400.0 mg/kg/injection, schedule: Q04DX003 (ip), vehicle: saline with Tween-80

Compound: CCN(/C=C/C=C(C#N)C#N)CC
- T/C [1]: 109 % of control
- T/C [2]: 88 % of control

Compound: O=C(O)CP(=O)(O)O
- T/C (dose: 250.0 mg/kg/injection, schedule: Q03HX024 (ip), vehicle: saline): 120 % of control

Compound: CSc1nc(Cl)c(Cl)c(C(F)(F)F)n1
- T/C (dose: 6.25 mg/kg/injection, schedule: Q01DX005 (ip), vehicle: saline): 110 % of control
- T/C (dose: 12.5 mg/kg/injection, schedule: Q01DX005 (ip), vehicle: saline): 109 % of control
- T/C (dose: 25.0 mg/kg/injection, schedule: Q01DX005 (ip), vehicle: saline): 115 % of control

Compound: CCO/C=C1\SC(=S)N(c2ccccc2OC)C1=O
- T/C (dose: 25.0 mg/kg/injection, schedule: Q01DX009 (ip), vehicle: Klucel (hydroxypropylcellulose) (HPC)): 100 % of control
- T/C (dose: 50.0 mg/kg/injection, schedule: Q01DX009 (ip), vehicle: Klucel (hydroxypropylcellulose) (HPC)): 112 % of control
- T/C (dose: 88.0 mg/kg/injection, schedule: Q01DX009 (ip), vehicle: Klucel (hydroxypropylcellulose) (HPC)): 103 % of control
- T/C (dose: 88.0 mg/kg/injection, schedule: Q01DX009 (ip), vehicle: saline with Tween-80): 122 % of control
- T/C [3]: 94 % of control
- T/C (dose: 132.0 mg/kg/injection, schedule: Q01DX009 (ip), vehicle: Klucel (hydroxypropylcellulose) (HPC)): 103 % of control
- T/C [4]: 94 % of control and 123 % of control
- T/C (dose: 300.0 mg/kg/injection, schedule: Q01DX009 (ip), vehicle: Klucel (hydroxypropylcellulose) (HPC)): 112 % of control

Compound: COc1ccc(-c2oc3cc(OC4OC(C)C(O)C(O)C4O)c(O)c(O)c3c(=O)c2OC2OC(C)C(O)C(O)C2O)cc1 (stereo unspecified)
- T/C (dose: 25.0 mg/kg/injection, schedule: Q01DX009 (ip), vehicle: saline + alcohol): 92 % of control
- T/C (dose: 50.0 mg/kg/injection, schedule: Q01DX009 (ip), vehicle: saline + alcohol): 92 % of control
- T/C (dose: 100.0 mg/kg/injection, schedule: Q01DX009 (ip), vehicle: saline + alcohol): 106 % of control

Compound: COc1ccc(C(=O)c2ccccc2)cc1OC
- T/C [5]: 100 % of control
- T/C [6]: 100 % of control

Compound: CC1CCC2(C)CCC3(C)C(=CCC4C5(C)CCC(O)C(C)(C)C5CCC43C)C2C1C (stereo unspecified)
- T/C [7]: 90 % of control
- T/C (dose: 100.0 mg/kg/injection, schedule: Q04DX003 (ip), vehicle: water): 90 % of control
- T/C (dose: 200.0 mg/kg/injection, schedule: Q04DX003 (ip), vehicle: water): 90 % of control
- T/C (dose: 400.0 mg/kg/injection, schedule: Q01DX009 (ip), vehicle: water): 90 % of control
- T/C (dose: 400.0 mg/kg/injection, schedule: Q04DX003 (ip), vehicle: water): 90 % of control

Compound: O=NNc1ccccn1
- T/C [8]: 105 % of control
- T/C [9]: 214 % of control
- T/C [10]: 112 % of control

Compound: CC1([CH2][Hg][I])CS(=O)(=O)CC(C)([CH2][Hg][I])O1 (stereo unspecified)
- T/C (dose: 5.0 mg/kg/injection, schedule: Q01DX010 (ip), vehicle: carboxymethylcellulose (CMC)): 104 % of control
- T/C (dose: 10.0 mg/kg/injection, schedule: Q01DX010 (ip), vehicle: carboxymethylcellulose (CMC)): 109 % of control

Compound: O=[N+]([O-])c1ccc(NCc2ccccc2)nc1
- T/C (dose: 25.0 mg/kg/injection, schedule: Q01DX009 (ip), vehicle: saline with Tween-80): 107 % of control
- T/C [1]: 109 % of control
- T/C [2]: 114 % of control

Compound: CN(C)c1ccc(C(C#N)(c2ccc(N(C)C)cc2)c2ccc(N(C)C)cc2)cc1
- T/C (dose: 50.0 mg/kg/injection, schedule: Q04DX003 (ip), vehicle: Klucel (hydroxypropylcellulose) (HPC)): 100 % of control
- T/C [5]: 100 % of control
- T/C [11]: 95 % of control

Compound: NNc1nc2c(N)ncnc2n1C1OC(CO)C(O)C1O (stereo unspecified)
- T/C [12]: 108 % of control
- T/C [13]: 115 % of control
- T/C [14]: 101 % of control
- T/C (dose: 400.0 mg/kg/injection, schedule: Q04DX003 (ip), vehicle: saline): 116 % of control

Compound: COc1cc2c3c(c4ccc(OC)c(OC)c4c2cc1OC)CN1CCC[C@@H]1C3
- T/C (dose: 1.25 mg/kg/injection, schedule: Q01DX010 (ip), vehicle: saline): 113 % of control
- T/C (dose: 2.5 mg/kg/injection, schedule: Q01DX010 (ip), vehicle: saline): 154 % of control
- T/C (dose: 6.0 mg/kg/injection, schedule: Q01DX010 (ip), vehicle: water): 150 % of control
- T/C (dose: 8.0 mg/kg/injection, schedule: Q01DX010 (ip), vehicle: water): 170 % of control
- T/C (dose: 10.0 mg/kg/injection, schedule: Q01DX010 (ip), vehicle: saline): 150 % of control
- T/C (dose: 10.0 mg/kg/injection, schedule: Q01DX010 (ip), vehicle: water): 90 % of control

Compound: CCCCNC(C)(C)CO
- T/C [8]: 100 % of control
- T/C (dose: 6.25 mg/kg/injection, schedule: Q01DX009 (ip), vehicle: saline): 99 % of control
- T/C [9]: 99 % of control
- T/C (dose: 12.5 mg/kg/injection, schedule: Q04DX003 (ip), vehicle: saline): 102 % of control
- T/C [10]: 99 % of control
- T/C (dose: 25.0 mg/kg/injection, schedule: Q04DX003 (ip), vehicle: saline): 100 % of control
- T/C [15]: 86 % of control
- T/C [12]: 102 % of control
- T/C [16]: 103 % of control
- T/C [13]: 95 % of control and 100 % of control

Compound: CCCCCCOP(=O)(N1CC1C)N1CC1C (stereo unspecified)
- T/C [15]: 122 % of control
- T/C [16]: 150 % of control and 182 % of control
- T/C (dose: 200.0 mg/kg/injection, schedule: Q01DX009 (ip), vehicle: saline): 86 % of control

Compound: Cc1cc2nc(CO)[nH]c2cc1C
- T/C [3]: 100 % of control
- T/C [4]: 86 % of control
- T/C (dose: 400.0 mg/kg/injection, schedule: Q01DX009 (ip), vehicle: Klucel (hydroxypropylcellulose) (HPC)): 95 % of control

Compound: C(=C/c1nnc2ncccn12)/c1ccccc1
- T/C [1]: 97 % of control
- T/C [2]: 94 % of control
- T/C (dose: 200.0 mg/kg/injection, schedule: Q01DX009 (ip), vehicle: saline with Tween-80): 110 % of control

Compound: C=C1CC(OC(C)=O)C2C(OC(=O)C2(C)OC(=O)/C(C)=C\C)C2C(C)=CC(=O)C12 (stereo unspecified)
- T/C (dose: 4.0 mg/kg/injection, schedule: Q01DX009 (ip), vehicle: Klucel (hydroxypropylcellulose) (HPC)): 100 % of control
- T/C (dose: 8.0 mg/kg/injection, schedule: Q01DX009 (ip), vehicle: Klucel (hydroxypropylcellulose) (HPC)): 109 % of control

Compound: Clc1ccc(CN2COc3c(ccc4cccnc34)C2)cc1Cl
- T/C [17]: 104 % of control
- T/C [18]: 104 % of control and 118 % of control
- T/C [19]: 109 % of control
- T/C [20]: 120 % of control

Compound: S=C(c1ccco1)N1CCOCC1
- T/C (dose: 37.5 mg/kg/injection, schedule: Q01DX009 (ip), vehicle: saline with Tween-80): 100 % of control
- T/C (dose: 75.0 mg/kg/injection, schedule: Q01DX009 (ip), vehicle: saline with Tween-80): 104 % of control
- T/C (dose: 150.0 mg/kg/injection, schedule: Q01DX009 (ip), vehicle: saline with Tween-80): 118 % of control

Compound: Cc1ccc2c(c1)NC(c1ccc(C(N)=S)cc1)N2 (stereo unspecified)
- T/C (dose: 25.0 mg/kg/injection, schedule: Q04DX003 (ip), vehicle: saline with Tween-80): 97 % of control
- T/C [17]: 88 % of control
- T/C [18]: 87 % of control

Compound: CC(=O)Nc1ccc(SSSc2ccc(NC(C)=O)cc2)cc1
- T/C (dose: 12.5 mg/kg/injection, schedule: Q01DX009 (ip), vehicle: water): 100 % of control
- T/C (dose: 25.0 mg/kg/injection, schedule: Q01DX009 (ip), vehicle: water): 96 % of control
- T/C (dose: 50.0 mg/kg/injection, schedule: Q01DX009 (ip), vehicle: water): 101 % of control
- T/C [7]: 105 % of control
- T/C (dose: 200.0 mg/kg/injection, schedule: Q01DX009 (ip), vehicle: water): 111 % of control and 118 % of control

Compound: CC(=O)OC1CCC(C(C)(C)C)CC1 (stereo unspecified)
- T/C [12]: 95 % of control
- T/C [13]: 109 % of control
- T/C [14]: 109 % of control

Compound: COc1ccc(/C=C2\C(=O)C(c3ccccc3)N(c3ccccc3)C2=O)cc1 (stereo unspecified)
- T/C (dose: 400.0 mg/kg/injection, schedule: Q04DX002 (ip), vehicle: saline with Tween-80): 88 % of control

Compound: C=CCOc1ccccc1-c1nnn(C)n1
- T/C [18]: 95 % of control
- T/C [19]: 97 % of control
- T/C [20]: 104 % of control

Compound: CCC(C(OC(=O)Nc1ccc(Cl)c(Cl)c1)c1ccc(Cl)cc1)C(O)(C(F)(F)F)C(F)(F)F (stereo unspecified)
- T/C [5]: 100 % of control
- T/C [11]: 95 % of control
- T/C [6]: 91 % of control

From PubChem BioAssay AID328 (DTP/NCI, 2004)
